These results are taken from patent US20120121692A1, “COMPOUNDS AND COMPOSITIONS COMPRISING CDK INHIBITORS AND METHODS FOR TREATING CANCER” (SHANDONG UNIVERSITY, priority 2009, published 2012).

Like-named read-outs stand apart in the source and are kept apart here.

For one data set, the system named is HCT116 cells. As to the kind of experiment: MTT cytotoxicity screening, human colon cancer cell line HCT116. It counts as cell-based. The source says:
Human colon cancer cell line HCT116 can be used for the preliminary cytotoxicity screening of the disclosed compounds as disclosed by Mosmann, T., “Rapid colorimetric assay for cellular growth and survival: application to proliferation and cytotoxicity assays.” J. Immunol. Methods, (1983) 65(1-2): p. 55-63 referred to herein further as the “MTT test” which is incorporated herein by reference in its entirety.
The disclosure of Mosmann recites the following. “MTT 93-(4,5-dimethylthirazol-2-yl)-2,5-diphenyl tetrazolium bromide; Sigman catalog no. M2128) was dissolved in PBS at 5 mg/ml and filtered to sterilize and remove a small amount of insoluble residue present in some batches of MTT. At the times indicated below, stock MTT solution (10 ml per 100 ml) was added to all wells of an assay, and plates were incubated at 37° C. for 4 h. Acid-siopropanol (100 ml of 0.04 N HCl in isopropanol) was added to all wells and mixed thoroughly to dissolve the dark blue crystals. After a few minutes at room temperature to ensure that all crystals were dissolved, the plates were read o a Dynatech MR580Microelisa reader, using a test wavelength of 570 nm, a reference wavelength of 630 nm, and a calibration setting of 1.99 (or 1.0 if the samples were strongly colored). Plates were normally read within 1 h of adding the isopropanol.
“Our final procedure was to add 0.01 ml MTT (5 mg/ml in phosphate-buffered saline) to 0.1 ml cells in growth medium. After 4 h at 37° C. for MTT cleavage, the formazan product was solublilized by the addition of 0.1 ml 0.04 N HCl in isopropanol. Optical density was measured on a Dynatech MR 580 plate reader, using a reference wavelength of 630 nm and a test wavelength of 570 nm.” 3-(4,5-Dimethylthiazol-2-yl)-2,5-diphenyltetrazolium bromide, a tetrazole, can pass through cellular membrane to enter into cells. This tetrazole may be reduced to the purple formazan in the mitochondria of living cells, which can diffuse out to form crystals. This crystal can be dissolved in the dimethyl sulfoxide to form a colored solution. The absorbance of this colored solution can be quantified by measuring at certain wavelength (490 nm) using a spectrophotometer. The quantity of the formazan crystal is proportional to the number of living cells.
As used herein, cells were cultured in McCoy's 5A medium supplemented with 10% heat-inactivated Fetal Bovine Serum (FBS) and 5% Penicillin/Streptomycin solution. McCoy's 5A, 1× (Iwakata & Grace modified) medium with L-Glutamine, DPBS, 1× w/o Ca and Mg, Penicillin/Streptomycin solution, Trypsin EDTA, 1× and PBS, 1× w/o Ca and Mg were purchased from Mediatech, Inc. (USA). FBS was purchased from Hyclone (USA).
The cytotoxicity of the compounds was estimated using the MTT assay. A 96-well plate was seeded with 100 μl medium containing HCT116 cells in suspension at a density of 2.5×10^4 cells/ml. After 24 hours of incubation, the cells were treated with the compounds, which were dissolved in DMSO (dimethyl sulfoxide) as stock solutions and diluted to final concentrations of 100 μM, 50 μM, 25 μM, 12.5 μM, 6.25 μM & 1 μM (for compounds tested in the micromolar concentrations) and 10 μM, 1 μM, 500 nM, 250 nM, 125 nM & 62.5 nM (for compounds tested in the nanomolar concentration range) using medium containing 0.1% DMSO. The final concentration of DMSO in the culture medium was maintained at 0.1%-0.001% (v/v). After 48 hrs incubation in the presence of test compounds, the spent medium was removed and the wells were washed twice with 100 μL of PBS solution. 100 μL of fresh medium and 10 μL of MTT (5 mg/ml in PBS) was added to the wells and incubated at 37° C. in dark for 4 hrs. The formazan product was dissolved by adding 100 μL of 100% DMSO after removing the medium from each well and was stabilized by adding 12.5 μL of Sorensen's glycine buffer to each well. […]

The mark [1] stands for this setting: Homo sapiens, HCT-116, 48 hrs incubation, absorbance 490 nm, primary screening, read-out: IC50.
[2] abbreviates: Homo sapiens, HCT-116, further evaluated after secondary screening (Table VIII), read-out: IC50 value.

With “5,7-dimethoxy-8-(1-methyl-1,2,3,6-tetrahydropyridin-4-yl)-2-(3-methylphenyl)-4H-chromen-4-one [Compound F2]”, the IC50 in the data set on HCT116 cells (48 hrs incubation, absorbance 490 nm, primary screening, read-out: IC50) was 20.6 µM.

Take `COc1cc(OC)c(C2=CCN(C)CC2)c(O)c1C(=O)/C=C/c1ccccc1` [Compound A1, (E)-1-(2-Hydroxy-4,6-dimethoxy-3-(1-methyl-1,2,3,6-tetrahydropyridine-4-yl)phenyl)-3-phenylprop-2-en-1-one]: the IC50 in the data set with HCT116 cells (setting [1]) worked out at 10.1 µM. In the case of `COc1cc(OC)c(C2=CCN(C)CC2)c(O)c1C(=O)/C=C/c1ccccc1Cl` [Compound A2, (E)-3-(2-chlorophenyl)-1-(2-hydroxy-4,6-dimethoxy-3-(1-methyl-1,2,3,6-tetrahydropyridine-4-yl)phenyl)-2-propylene-1-one], the melting point is 184 to 185 °C. In addition, the IC50 with HCT116 cells (setting [1]) amounted to 28.3 µM. For `COc1cc(OC)c(C2=CCN(C)CC2)c(O)c1C(=O)/C=C/c1ccccc1[N+](=O)[O-]` [Compound A3, (E)-1-(2-hydroxy-4,6-dimethoxy-3-(1-methyl-1,2,3,6-tetrahydropyridine-4-yl)phenyl)-3-(2-nitrophenyl)-2-propylene-1-one] the same measures were 149 to 151 °C and 17.9 µM. In the case of `COc1cccc(/C=C/C(=O)c2c(OC)cc(OC)c(C3=CCN(C)CC3)c2O)c1OC` [Compound A4, (E)-3-(2,3-dimethoxyphenyl)-1-(2-hydroxy-4,6-dimethoxy-3-(1-methyl-1,2,3,6-tetrahydropyridine-4-yl)phenyl)-2-propylene-1-one], the melting point is 171 to 172 °C. Moreover, in the data set with HCT116 cells (setting [1]), the IC50 came out at 5.22 µM. Besides, the IC50 with HCT116 cells (setting [2]) is more than 1 µM.

`COc1cc(OC)c(C2=CCN(C)CC2)c(O)c1C(=O)/C=C/c1cccc(C)c1` [Compound A5, (E)-1-(2-hydroxy-4,6-dimethoxy-3-(1-methyl-1,2,3,6-tetrahydropyridine-4-yl)phenyl)-3-meta-methylphenyl-2-propylene-1-one] came in with a melting point of 165 to 166 °C. The concentration for half-maximal inhibition (IC50) in the data set on HCT116 cells (setting [1]) was 8.89 µM.

On to `COc1cccc(/C=C/C(=O)c2c(OC)cc(OC)c(C3=CCN(C)CC3)c2O)c1` [Compound A6, (E)-1-(2-hydroxy-4,6-dimethoxy-3-(1-methyl-1,2,3,6-tetrahydropyridine-4-yl)phenyl)-3-(3-methoxyphenyl)-2-propylene-1-one], for which the melting point was in the range of 140 to 141 °C. The half-inhibitory concentration (IC50) with HCT116 cells (setting [1]) was 6.78 µM.

The compound `COc1cc(OC)c(C2=CCN(C)CC2)c(O)c1C(=O)/C=C/c1cccc(Cl)c1` [Compound A7, (E)-3-(3-chlorophenyl)-1-(2-hydroxy-4,6-dimethoxy-3-(1-methyl-1,2,3,6-tetrahydropyridine-4-yl)phenyl)-2-propylene-1-one] registered a melting point of 182 to 184 °C. The half-maximal inhibitory concentration (IC50) with HCT116 cells (setting [1]) came out at 3.24 µM. For `COc1cc(OC)c(C2=CCN(C)CC2)c(O)c1C(=O)/C=C/c1cccc([N+](=O)[O-])c1` [Compound A8, (E)-1-(2-hydroxy-4,6-dimethoxy-3-(1-methyl-1,2,3,6-tetrahydropyridine-4-yl)phenyl)-3-(3-nitrophenyl)-2-propylene-1-one] the same measures were 128 to 130 °C and 10.5 µM. For `COc1cc(OC)c(C2=CCN(C)CC2)c(O)c1C(=O)/C=C/c1ccc(C)cc1` [Compound A9, (E)-1-(2-hydroxy-4,6-dimethoxy-3-(1-methyl-1,2,3,6-tetrahydropyridine-4-yl)phenyl)-3-(4-methylphenyl)-2-propylene-1-one], the melting point lay in the range of 150 to 151 °C. In the data set on HCT116 cells (setting [1]), the half-inhibitory concentration (IC50) is 3.87 µM. The corresponding values for `COc1ccc(/C=C/C(=O)c2c(OC)cc(OC)c(C3=CCN(C)CC3)c2O)cc1` [Compound A10, (E)-1-(2-hydroxy-4,6-dimethoxy-3-(1-methyl-1,2,3,6-tetrahydropyridine-4-yl)phenyl)-3-(4-methoxyphenyl)-2-propylene-1-one] are 177 to 178 °C and 11.8 µM. Compound `COc1cc(OC)c(C2=CCN(C)CC2)c(O)c1C(=O)/C=C/c1ccc(O)cc1` [Compound A11, (E)-1-(2-hydroxy-4,6-dimethoxy-3-(1-methyl-1,2,3,6-tetrahydropyridine-4-yl)phenyl)-3-(4-hydroxyphenyl)-2-propylene-1-one] displayed a melting point of 98 to 100 °C. Also, in the data set on HCT116 cells (setting [1]), the IC50 was 88.2 µM. The corresponding values for `COc1cc(OC)c(C2=CCN(C)CC2)c(O)c1C(=O)/C=C/c1ccc(Cl)cc1` [Compound A12, (E)-3-(4-chlorophenyl)-1-(2-hydroxy-4,6-dimethoxy-3-(1-methyl-1,2,3,6-tetrahydropyridine-4-yl)phenyl)-2-propylene-1-one] are 169 to 170 °C and 8.3 µM. For `COc1cc(OC)c(C2=CCN(C)CC2)c(O)c1C(=O)/C=C/c1ccc(Br)cc1` [Compound A13, (E)-3-(4-bromophenyl)-1-(2-hydroxy-4,6-dimethoxy-3-(1-methyl-1,2,3,6-tetrahydropyridine-4-yl)phenyl)-2-propylene-1-one], the melting point lay within 164 to 165 °C. Besides, the IC50 with HCT116 cells (setting [1]) turned out to be 8.76 µM. Consider `COc1cc(OC)c(C(=O)/C=C/c2ccc(C)cc2)c(O)c1CN1CCCCC1` [Compound C1, (E)-1-(2-hydroxy-4,6-dimethoxy-3-(piperidin-1-ylmethyl)phenyl)-3-(4-methylphenyl)-2-propylene-1-one], for which the IC50 in the data set on HCT116 cells (setting [1]) stood at 5.57 µM. Consider `COc1cccc(/C=C/C(=O)c2c(OC)cc(OC)c(CN3CCCCC3)c2O)c1` [Compound C3, (E)-1-(2-hydroxy-4,6-dimethoxy-3-(piperidin-1-ylmethyl)phenyl)-3-(3-methoxyphenyl)-2-propylene-1-one], for which, in the data set on HCT116 cells (setting [1]), the IC50 was found to be 2.85 µM.

As to `COc1cc(OC)c(C(=O)/C=C/c2cccc(C)c2)c(O)c1CN1CCCCC1` [Compound C5], the melting point lay within 113 to 114 °C. The same measure, in the same setting: next, `COc1cc(OC)c(C(=O)/C=C/c2ccc(Br)cc2)c(O)c1CN1CCCCC1` [Compound C6]: 99 to 100 °C; `COc1cc(OC)c(C(=O)/C=C/c2cccc(C)c2)c(O)c1CN1CCOCC1` [Compound D7, (E)-3-(3-methylphenyl)-1-(2-hydroxy-4,6-dimethoxy-3-(morpholinemethyl)-phenyl)-2-propylene-1-one]: 158 to 159 °C; `COc1cc(OC)c(C(=O)/C=C/c2cc(OC)c(OC)c(OC)c2)c(O)c1CN1CCOCC1` [Compound D8, (E)-3-(3,4,5-trimethoxyphenyl)-1-(2-hydroxy-4,6-dimethoxy-3-(morpholinemethyl)-phenyl)-2-propylene-1-one]: 169 to 170 °C. Turning to `COc1cc(OC)c2c(=O)cc(-c3ccccc3)oc2c1C1=CCN(C)CC1` [Compound F1, 5,7-Dimethoxy-8-(1-methyl-1,2,3,6-tetrahydropyridin-4-yl)-2-phenyl-4H-chromen-4-one], in the data set on HCT116 cells (setting [1]), the IC50 turned out to be 21.1 µM. Same read-out and setting: next, `CN1CC=C(c2c(O)cc(O)c3c(=O)cc(-c4ccccc4)oc23)CC1` [Compound G1, 5,7-hydroxy-8-(1-methyl-1,2,3,6-tetrahydropyridin-4-yl)-2-phenyl-4H-chromen-4-one]: 3.76 µM.

Take `CN1CC[C@H](c2c(O)cc(O)c3c(=O)cc(-c4ccccc4Cl)oc23)[C@H](O)C1` [flavopiridol, reference compound]: in the data set on HCT116 cells (setting [2]), the IC50 was approximately 0.13 µM.

Usually IC50 stands for the midpoint of a concentration-inhibition curve. The melting point is the temperature, or range, at which the solid turns liquid.
